Data taken from publication PMC4817054, “Expansion of a bitter taste receptor family in a polyphagous insect herbivore” (Scientific Reports, 2016).

System: HarmGR195
Conditions: agonist; HarmGR195 expressed alone; SEM, N = 3; HBSS

O=C(O)[C@@H]1CCCN1 [proline]
EC50: 43 ± 7 mM
